In the SangsterLogP compilation:

Assay: method code SF-HPLC, from DOI: 10.1081/jlc-100101463
Details: pH 12.0

logD	SMILES
0.94	CC1CCCC(C)N1CC1CN=C(N)O1 (stereo not drawn)
2.38	NC1=NCC(CN2CCC(Cc3ccccc3)CC2)O1 (stereo not drawn)
-0.22	NC1=NCC(CN2CCOCC2)O1 (stereo not drawn)
2.24	Cc1cc(C)cc(OCC2CN=C(N)O2)c1 (stereo not drawn)
1.31	CC(=O)c1cccc(OCC2CN=C(N)O2)c1 (stereo not drawn)
0.98	CC(C)N(CC1CN=C(N)O1)C(C)C (stereo not drawn)
2.87	CC(C)(C)c1ccc(OCC2CN=C(N)O2)cc1 (stereo not drawn)
1.96	NC1=NCC(CN2CCC(c3ccccc3)CC2)O1 (stereo not drawn)
0.16	CC1CN(CC2CN=C(N)O2)CC(C)O1 (stereo not drawn)
0.73	CC1CCCCN1CC1CN=C(N)O1 (stereo not drawn)
0.91	CC1CCN(CC2CN=C(N)O2)CC1 (stereo not drawn)
0.19	NC1=NCC(CN2CC=CCC2)O1 (stereo not drawn)
1.05	NC1=NCC(CN2CCC(C(=O)c3ccccc3)CC2)O1 (stereo not drawn)
